Consider twelve molecules from publication PMC12320831, “Synthesis and Biological Evaluation of New Chalcogen Semicarbazone (S, Se) and Their Azole Derivatives against Chagas Disease” (Journal of Medicinal Chemistry, 2024).

Each structure is given as a SMILES string. “And” between values parts separate entries of the source, which are not always exact repeats. Equal entries are not always repeated. Structures can show the parent of a compound that is named as a salt. Where two headings read alike, the source gives them in different places. Bounds are passed on as bounds.

One series relates to T. cruzi CAI/72 strain. The series can be described thus: Antiparasitic activity in C2C12 cells infected with T. cruzi CAI/72 (image-based assay). The note with it: for EC50: mean of three experiments in triplicate (n = 9) ± SD. The format is cell-based. As for the experimental part:
Antiparasitic activity and cytotoxicity of compounds were determined as described before (da Silva et al., Boudreau et al.). Mouse myoblasts cell line C2C12 (ATCCCRL-1772), were maintained in high glucose (4.5 g/L glucose) Dulbecco’s modified Eagle’s medium (DMEM Gibco), supplemented with 1% penicillin–streptomycin 10,000 U/mL (Gibco) and 5% fetal bovine serum (FBS, Sigma-Aldrich) at 37 °C with 5% CO2. parasites (CAI/72 strain, DTU TcI) were maintained by weekly coinfection with C2C12 cells. For all activity assays, C2C12 cells were infected at a 10:1 parasite-to-cell ratio with culture-derived trypomastigotes, which were harvested from the supernatant of infected C2C12 cells. After adding compounds to 384-well black clear-bottom plates (Greiner cat. no. 781091), trypomastigotes (7000 parasites/well) and C2C12 cells (700 cells/well) were seeded in a total volume of 50 μL of DMEM per well in the 384-well plates. Compounds were first tested at 10 μM. […] Plates were imaged with the automated ImageXpress MicroXL microscope (Molecular Devices) and analyzed by MetaXpress software (Molecular Devices) using a custom module optimized for this assay. Infection levels (parasites per host cell) were normalized to the positive control (40 μM BNZ) and negative control (DMSO). Antiparasitic activity (EC50) ± standard deviation (SD) and host cell cytotoxicity (C2C12 viability) values were determined from the DRC using Prism software (GraphPad Software, La Jolla, CA). Every assay has three biological replicates, each in triplicates (n = 9 data points).

Series [1] in a line: Host cell cytotoxicity (C2C12 viability). The format is cell-based, Mouse. The note with it: mouse; for viability at 48 h, 10 µM: < 50% viability considered cytotoxic; for CC50 at 48 h: viability calculated at 10 μM. As for the experimental part: Antiparasitic activity and cytotoxicity of compounds were determined as described before (da Silva et al., Boudreau et al.). Mouse myoblasts cell line C2C12 (ATCCCRL-1772), were maintained in high glucose (4.5 g/L glucose) Dulbecco’s modified Eagle’s medium (DMEM Gibco), supplemented with 1% penicillin–streptomycin 10,000 U/mL (Gibco) and 5% fetal bovine serum (FBS, Sigma-Aldrich) at 37 °C with 5% CO2. parasites (CAI/72 strain, DTU TcI) were maintained by weekly coinfection with C2C12 cells. For all activity assays, C2C12 cells were infected at a 10:1 parasite-to-cell ratio with culture-derived trypomastigotes, which were harvested from the supernatant of infected C2C12 cells. After adding compounds to 384-well black clear-bottom plates (Greiner cat. no. 781091), trypomastigotes (7000 parasites/well) and C2C12 cells (700 cells/well) were seeded in a total volume of 50 μL of DMEM per well in the 384-well plates. Compounds were first tested at 10 μM. […] After 48 h at 37 °C and 5% CO2, plates were fixed with 4% formaldehyde solution for at least 1 h, washed with 1× PBS, and stained with 5 μg/mL of 4′,6-diamidino-2-phenylindole (DAPI) for at least 1 h prior to reading. Plates were imaged with the automated ImageXpress MicroXL microscope (Molecular Devices) and analyzed by MetaXpress software (Molecular Devices) using a custom module optimized for this assay. Infection levels (parasites per host cell) were normalized to the positive control (40 μM BNZ) and negative control (DMSO). Antiparasitic activity (EC50) ± standard deviation (SD) and host cell cytotoxicity (C2C12 viability) values were determined from the DRC using Prism software (GraphPad Software, La Jolla, CA). Every assay has three biological replicates, each in triplicates (n = 9 data points).

The target of a further series is T1, recombinant Cz (cruzain) (Trypanosoma cruzi, UniProt P25779).
T1 construct: Cz was expressed and purified as described in da Silva et al; made in house
As to the kind of experiment: biochemical. The conditions noted are these: for inhibition at 10 µM: read-out: Cz inhibition (%), 10 µM; for Cz inhibition (%): 10 µM; for SICz: ratio between IC50 hCatL and IC50 Cz. As for the experimental part: The screening assay was performed using 1 nM of Cz diluted in 0.1 M sodium acetate pH 5.5, 1 mM dithiothreitol (DTT), and 0.01% Triton X-100. Cz was expressed and purified as described in da Silva et al. The reaction starts after 10 min incubating the enzyme with the compounds (10 μM), when adding 2.5 μM of the substrate Z-FR-AMC final concentration (Z-Phe-Arg-amidomethylcoumarin, Sigma-Aldrich, C9521) diluted in the same assay buffer (final volume of 30 μL). The experiment was performed for 10 min. […] The DRC was performed with at least nine different concentrations of the inhibitors, diluted by 2-fold serial dilution, ranging from […] to 10 μM.
(§1) All experiments were accomplished in a 384-well black microplate, using a Synergy HTX (Biotek) plate reader at 25 °C with absorption/emission wavelengths of 360/460 nm. All assays were performed in triplicate wells and DMSO was used as a vehicle control. Enzymatic activity was measured and normalized to DMSO controls, and the inhibitor E-64 (10 μM) was used as a positive control for all assays. All experiments were performed in triplicates, with at least two independent assays (n = 6 data points). IC50 values were determined through nonlinear regression. Obtained data were treated and analyzed using GraphPad Prism 9.0 (GraphPad Software, La Jolla, California).

Series [2] addresses T2, Recombinant human cathepsin L (hCatL) (Homo sapiens, UniProt P07711).
T2 construct: purchased R&D Systems 952-CY
The series can be described thus: Human cathepsin L inhibition assay (Z-FR-AMC substrate). The format is biochemical. As for the experimental part:
Compounds were screened at 10 μM. […] The experiment was performed for 30 min.
as §1

[3] abbreviates: Trypanosoma cruzi, 10 µM, C2C12 infected cells, read-out: Anti-Tc CAI/72 activity (%).
Setting [4] is: C2C12 myoblast cells infected with trypomastigotes.
Where [5] appears, read: mean of two experiments in triplicate (n = 6) ± SEM, read-out: IC50 Cz.
Setting [6] is: no DRC performed, bound from the screen at 10 µM, read-out: IC50 hCatL.
[7] abbreviates: Trypanosoma cruzi, C2C12, 48 h, read-out: EC50 Tc CAI/72, intracellular amastigotes in C2C12 cells, 48 h.
Setting [8] is: Trypanosoma cruzi, C2C12, read-out: Anti-Tc CAI/72 activity (%).
[9] abbreviates: read-out: EC50 Tc CAI/72, intracellular amastigotes in C2C12 cells, 48 h.
Setting [10] is: IC50 Cz, single biological replicate (Figure 3), each of two biological replicates in triplicate.
Setting [11] is: each of two biological replicates in triplicate, read-out: IC50 hCatL, single biological replicate (Figure 4).
Where [12] appears, read: mean of two experiments in triplicate (n = 6) ± SEM, read-out: IC50 hCatL.

T2 sequence (P07711 114-333): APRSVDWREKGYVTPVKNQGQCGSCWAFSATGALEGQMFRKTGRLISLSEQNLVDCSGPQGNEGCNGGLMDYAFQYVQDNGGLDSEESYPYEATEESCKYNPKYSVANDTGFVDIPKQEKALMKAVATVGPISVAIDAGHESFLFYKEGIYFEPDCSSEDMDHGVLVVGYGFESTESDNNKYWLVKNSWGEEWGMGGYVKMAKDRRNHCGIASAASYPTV
T1 sequence (P25779 123-337 limits assumed): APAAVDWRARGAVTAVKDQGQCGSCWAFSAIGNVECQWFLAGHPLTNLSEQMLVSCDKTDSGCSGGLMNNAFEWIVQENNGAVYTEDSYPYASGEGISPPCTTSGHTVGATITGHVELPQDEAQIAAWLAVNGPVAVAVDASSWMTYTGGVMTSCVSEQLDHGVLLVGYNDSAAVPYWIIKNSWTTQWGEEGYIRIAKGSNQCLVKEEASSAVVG

The viability is a read-out of living cells in per cent, often relative to untreated cells. A high value points to less harm to the cells. For orientation: IC50 means the midpoint of a concentration-inhibition curve. With `C/C(=N\Nc1nc(C)cs1)c1cccc(Cl)c1` [Compound S2i, (E)-2-(2-(1-(3-Chlorophenyl)ethylidene)hydrazineyl)-4-methylthiazole], the figures for the inhibition at 10 µM (in the series on T. cruzi CAI/72 strain (setting [3]); on recombinant Cz (cruzain); in series [2]) were 49.3%, 97.5% and 24.7%, respectively. The viability at 48 h, 10 µM in series [1] (setting [4]) is greater than 100%. The IC50 at recombinant Cz (cruzain) (setting [5]) was 142 ± 79.2 nM; in series [2] (setting [6]), greater than 10000 nM.

What is called CC50 is the concentration that lowers cell viability or growth by half. With `C/C(=N\Nc1nc(C)c[se]1)c1cccc(Cl)c1.Cl` [Se2i, (E)-2-(2-(1-(3-Chlorophenyl)ethylidene)hydrazineyl)-4-methyl-1,3-selenazole Hydrochloride], the EC50 in the series with T. cruzi CAI/72 strain (setting [7]) was less than 1000 nM; in the series on T. cruzi CAI/72 strain (setting [9]), 530 ± 570 nM. Besides, the results for the inhibition at 10 µM (with T. cruzi CAI/72 strain (setting [8]); at recombinant Cz (cruzain); in series [2]) were 65%, greater than 85% and 98%, respectively. The molecule further yielded a viability at 48 h, 10 µM in series [1] greater than 100%. Besides, in series [1], the CC50 at 48 h is greater than 10000 nM. In addition, at recombinant Cz (cruzain), the “Cz inhibition (%)” value is reported as 102.55%. The IC50 on recombinant Cz (cruzain) (setting [10]) was 63.8 nM and 99.5 nM; at recombinant Cz (cruzain) (setting [5]), 81.7 ± 17.9 nM; in series [2] (setting [11]), 458 nM and 449 nM; in series [2] (setting [12]) it was 453.7 ± 4.4 nM. In addition, the SICz on recombinant Cz (cruzain) is reported as 5.55.

With `C/C(=N\NC(N)=[Se])c1ccc(Br)cc1` [Se1f, (E)-2-(1-(4-Bromophenyl)ethylidene)hydrazine-1-carboselenoamide], the EC50 in the series on T. cruzi CAI/72 strain (setting [7]) is less than 1000 nM; in the series on T. cruzi CAI/72 strain (setting [9]), 770 ± 170 nM. Besides, the figures for the inhibition at 10 µM (in the series with T. cruzi CAI/72 strain (setting [3]); on recombinant Cz (cruzain); in series [2]) were 69.5%, greater than 85% and 97.3%, respectively. This molecule also came in with a viability at 48 h, 10 µM in series [1] greater than 100%. The CC50 at 48 h in series [1] was greater than 10000 nM. In addition, at recombinant Cz (cruzain), the “Cz inhibition (%)” value is recorded as 101.08%. Moreover, the IC50 at recombinant Cz (cruzain) (setting [10]) was 17.8 nM and 10.7 nM; on recombinant Cz (cruzain) (setting [5]), 14.3 ± 3.57 nM; in series [2] (setting [11]), 91.3 nM and 121 nM; in series [2] (setting [12]), 106 ± 14.9 nM. The SICz on recombinant Cz (cruzain) is recorded as 7.42.

Turning to `C/C(=N\Nc1nc(C)cs1)c1cccc([N+](=O)[O-])c1` [Compound S2h, (E)-4-Methyl-2-(2-(1-(3-nitrophenyl)ethylidene)hydrazineyl)thiazole Hydrochloride], the results for the inhibition at 10 µM (in the series with T. cruzi CAI/72 strain (setting [3]); on recombinant Cz (cruzain); in series [2]) were 28.8%, 96.9% and 12.1%, respectively. The molecule also returned a viability at 48 h, 10 µM in series [1] (setting [4]) greater than 100%. The IC50 on recombinant Cz (cruzain) (setting [5]) is 1280 ± 1120 nM; in series [2] (setting [6]), greater than 10000 nM.

With `C/C(=N\NC(N)=[Se])c1cccc([N+](=O)[O-])c1` [Se1h, (E)-2-(1-(3-Nitrophenyl)ethylidene)hydrazine-1-carboselenoamide], the inhibition at 10 µM is 41% in the series on T. cruzi CAI/72 strain (setting [3]), 104% at recombinant Cz (cruzain) and 98.7% in series [2]. This molecule also had a viability at 48 h, 10 µM in series [1] of 97.3%. The IC50 on recombinant Cz (cruzain) (IC50 Cz, mean of two experiments in triplicate (n = 6) ± SEM) amounted to 0.91 ± 0.18 nM; in series [2] (setting [12]), 9.32 ± 0.38 nM. Also, the SICz on recombinant Cz (cruzain) was 10.22.

As to `C/C(=N\Nc1nc(C)c[se]1)c1ccc(C(F)(F)F)cc1` [Se2d, (E)-4-Methyl-2-(2-(1-(4-(trifluoromethyl)phenyl)ethylidene)hydrazineyl)-1,3-selenazole Hydrochloride], the inhibition at 10 µM amounted to 27.9% in the series on T. cruzi CAI/72 strain (setting [8]) and 95.2% at recombinant Cz (cruzain). The molecule also gave a viability at 48 h, 10 µM in series [1] of 96.1%.

As to `C/C(=N\NC(N)=S)c1cccc([N+](=O)[O-])c1` [Compound S1h, (E)-2-(1-(3-Nitrophenyl)ethylidene)hydrazine-1-carbothioamide], the results for the inhibition at 10 µM (in the series with T. cruzi CAI/72 strain (setting [3]); at recombinant Cz (cruzain); in series [2]) were 24.8%, 100% and 94.5%, respectively. Moreover, in series [1] (setting [4]), the viability at 48 h, 10 µM is greater than 100%. The IC50 on recombinant Cz (cruzain) (setting [5]) was 1.15 ± 0.74 nM; in series [2] (setting [12]), 190 ± 18.4 nM. Besides, the SICz at recombinant Cz (cruzain) stood at 164.83.

Take `COc1ccc(/C(C)=N/NC(N)=S)c(OC)c1` [Compound S1k, (E,Z)-2-(1-(2,4-Dimethoxyphenyl)ethylidene)hydrazine-1-carbothioamide]: the inhibition at 10 µM with T. cruzi CAI/72 strain (setting [3]) came to 0.7%; on recombinant Cz (cruzain) it was 39.3%. The same molecule came in with a viability at 48 h, 10 µM in series [1] (setting [4]) greater than 100%.

As to `C/C(=N\NC(N)=S)c1cc2ccccc2o1` [Compound S1p, (E)-2-(1-(Benzofuran-2-yl)ethylidene)hydrazine-1-carbothioamide], the inhibition at 10 µM was 49.7% in the series with T. cruzi CAI/72 strain (setting [3]) and 99.3% on recombinant Cz (cruzain). The molecule also gave a viability at 48 h, 10 µM in series [1] (setting [4]) greater than 100%.

`C/C(=N\Nc1nc(C)c[se]1)c1cc2ccccc2o1` [Se2p, (E)-2-(2-(1-(Benzofuran-2-yl)ethylidene)hydrazineyl)-4-methyl-1,3-selenazole Hydrochloride]: the inhibition at 10 µM with T. cruzi CAI/72 strain (setting [8]) was 26.6%; on recombinant Cz (cruzain) it was 98.5%. This molecule also displayed a viability at 48 h, 10 µM in series [1] greater than 100%.

Consider `COc1cccc(/C(C)=N/NC(N)=[Se])c1` [Se1g, (E)-2-(1-(3-Methoxyphenyl)ethylidene)hydrazine-1-carboselenoamide], for which the inhibition at 10 µM is 7.03% in the series on T. cruzi CAI/72 strain (setting [8]) and 101% on recombinant Cz (cruzain). For the same molecule, in series [1], the viability at 48 h, 10 µM was 31.1%.

Consider `C/C(=N\Nc1nc(C)c[se]1)c1ccc(C)cc1` [Se2a, (E)-4-Methyl-2-(2-(1-(4-tolyl)ethylidene)hydrazineyl)-1,3-selenazole Hydrochloride], for which the inhibition at 10 µM in the series with T. cruzi CAI/72 strain (setting [8]) was 11.1%; at recombinant Cz (cruzain), 28.6%. In series [1], this molecule displayed a viability at 48 h, 10 µM of 91.9%.
